From patent publication US20060030586A1, “Method and health food for preventing and/or alleviating psychiatric disorder, and/or for effectuating sedation” (Education Center of Traditional Chinese Medicine Co., priority 2004, published 2006)

Legend:
mice [1] = conditions: Ito et al.; cited from earlier work
mice [2] = assay: Thiopental sleep-enhancing test; type: in vivo; conditions: 15 minutes before thiopental 60 mg/kg i.p.
Procedure: (§1) In the following Examples, all extracts and drugs used were dissolved in physiological saline before use for i.p. administration and the dose was 0.1 ml of physiological saline per 10 g of mouse body weight in either case. All extracts and drugs were suspended in physiological saline containing 1% carboxymethylcellulose before use for oral administration and the dose was 0.1 ml of 1% carboxymethylcellulose-containing physiological saline suspension per 10 g of mouse body weight in either case. Male ICR mice (Japan SLC) having a body weight of 25 to 30 g were used in the tests below unless otherwise stated, and were fed in advance at a room temperature of 23±1° C. and a relative humidity of 55±5% in the environment of a 12-hour-light and 12-hour-dark cycle at 7 and 19 for 3 to 5 days. The mice were allowed to have water and feed freely.
Actions on thiopental sleep by various compounds were evaluated. Thiopental dissolved in physiological saline was administered intraperitoneally into mice at a dose of 60 mg/kg. 50 mg/kg of neferine hydrochloride (treatment group 2-1, n=9), 50 mg/kg of isoliensinine hydrochloride (treatment group 2-2, n=9), 100 mg/kg of lien tzehsin 2 extract hydrochloride (treatment group 2-3, n=9), only physiological saline (negativity control group, n=6), or 1 mg/kg of diazepam (positive control group, n=9) was administered intraperitoneally into the mice 15 minutes before the thiopental administration. The time when the righting reflex of the mice disappeared after thiopental administration was designated as sleep-induction time, while total sleep time was calculated from the induction time and the time when the righting reflex was restored.

mice [3] = assay: Elevated plus-maze test; type: in vivo; conditions: 100 mg/kg i.p., hydrochloride, 30 minutes after administration, 5 minutes
Procedure: In the following Examples, all extracts and drugs used were dissolved in physiological saline before use for i.p. administration and the dose was 0.1 ml of physiological saline per 10 g of mouse body weight in either case. All extracts and drugs were suspended in physiological saline containing 1% carboxymethylcellulose before use for oral administration and the dose was 0.1 ml of 1% carboxymethylcellulose-containing physiological saline suspension per 10 g of mouse body weight in either case. […]
An elevated plus-maze (Neuroscience Inc.) consisting of 2 arms without high walls and 2 arms enclosed by high walls, which were crossing perpendicular to each other, was used for evaluation. A mouse was placed on the platform at the center in a position facing toward an arm enclosed by high walls, and the number of times the mouse entered into both arms and the period of the mouse staying in the arms without walls were determined during a period of 5 minutes. The results were evaluated by the ratios of the number of the mouse entering into the arms with walls with respect to the total number of entering into both arms (%) and by the period of the mouse staying in the arms without walls (%). […]

mice [4] = assay: Forced swimming test (Porsolt); type: in vivo; conditions: 100 mg/kg i.p., hydrochloride, 6-minute period
Procedure: as §1
Forced swimming tests were conducted according to the method of Porsolt et al. A mouse was placed in a cylindrical glass water tank of 10 cm in diameter and 25 cm in height (water temperature: 23° C.) filled with water to a depth of 10 cm and forced to swim therein. […] Each mouse was forced to swim 15 and 30 minutes after administration, and the immobile times during the 6-minute periods immediately after forced swimming were determined. […]

[5] = Seibu et al., no specific data; cited from earlier work
mice [6] = assay: Rotarod test (muscle relaxation, motor coordination); type: in vivo; conditions: n=6, 8 rpm, 3 minutes, 15 minutes after administration
Procedure: as §1
(§2) Tests were performed by using mice administered intraperitoneally with 25 mg/kg of neferine hydrochloride (treatment group 7-1, n=6), 25 mg/kg of liensinine hydrochloride (treatment group 7-2, n=6), and physiological saline (negativity control group, n=6) as well as 5 mg/kg of diazepam (positive control group, n=6) and a rotarod equipment (Ugo Basile, Italy) and a locomotor activity monitoring system (NS-ASO1, Neuroscience Inc.). The rotarod test was performed by placing a mouse on a rod having a diameter of 4 cm rotating at a speed of 8 rpm 15 minutes after drug administration and observing whether the mouse can stay on the rod without falling for three minutes. The individuals that had fallen from the rotating rod in the period of 3 minutes were judged that they are with motor coordination disorder. […] In addition, the ultromotivity measurements were performed at an interval of five minutes for 60 minutes, and the ultromotivity results were subjected to a significant difference test (Tukey's method) by using the counts at respective measuring times.

mice [7] = assay: Locomotor activity (ultromotivity) measurement, evaluation of sedative action; type: in vivo; conditions: for Significant difference test of ultromotivity: Tukey's method; for Significant difference test of ultromotivity / Ultromotivity (count) 60 minutes: 60 minutes
Procedure: as §1
Twenty five mice were grouped into five groups each having five mice, to which 5 mg/kg of N-methylcoclaurine hydrochloride (treatment group 1-1: i.p. administration), 50 mg/kg of neferine hydrochloride (treatment group 1-2: oral administration, and treatment group 1-3: i.p. administration), 50 mg/kg of liensinine hydrochloride (treatment group 1-4: oral administration), or physiological saline (negativity control group 1-1: i.p. administration) was administered. The ultromotivity of the mice was analyzed by using a locomotor activity monitoring system (NS-AS01, Neuroscience Inc.). The ultromotivity measurements were performed at an interval of 5 minutes for 60 minutes, and the ultromotivity was judged from the count at each measuring time.
Similar tests were conducted by i.p. administration of 25 mg/kg of N-norarmepavine (treatment group 1-5, n=6), 25 mg/kg of O,O-dimethylcoclaurine (treatment group 1-6, n=5), 10 mg and 25 mg/kg of armepavine (respectively, treatment group 1-7, n=6, and treatment group 1-8, n=6), 10 mg and 25 mg/kg of O-methylarmepavine (respectively, treatment group 1-9, n=6, and treatment group 1-10, n=6), and physiological saline (negativity control group 1-2, n=5). The ultromotivity measurements were performed at an interval of five minutes for 60 minutes, and the ultromotivity was subjected to a significant difference test (Tukey's method) by using the counts at respective measuring times.
as §2

mice [8] = assay: Suppression of methamphetamine-enhanced ultromotivity; type: in vivo; conditions: for Ultromotivity (count): hydrochloride, methamphetamine 1 mg/kg 15 minutes later, 60 minutes
Procedure: as §1
The effects of neferine on suppression of the enhancement of ultromotivity by methamphetamine were evaluated.
Fifteen mice were grouped into three groups of five mice, to which 50 mg/kg of neferine hydrochloride (treatment group 3-1), 100 mg/kg of the same (treatment group 3-2), and only physiological saline (negativity control group) were administered respectively intraperitoneally. Methamphetamine (1 mg/kg) was administered 15 minutes after the administration. After administration of methamphetamine, each of the mice was placed in a transparent polycarbonate cage (22.5 cm×33.8 cm×14.0 cm), where the ultromotivity of the mouse was analyzed for 60 minutes by using a locomotor activity analyzer (NS-AS01, Neuroscience Inc.).

mice [9] = assay: Glass ball-covering behavior test; type: in vivo; conditions: hydrochloride, 20 balls
Procedure: as §1
In evaluating glass ball-covering behavior, wood chip for breeding (beta chip) (Oriental Yeast Co., Ltd.) was placed in the transparent cage described in Example 3 to a depth of 5 cm, on which 20 glass balls (diameter: 1.5 cm) were placed evenly.
Twenty-one mice were grouped into three groups of seven mice, to which 25 mg/kg of neferine hydrochloride (treatment group 6-1), 50 mg/kg of the same (treatment group 6-2), and physiological saline (negativity control group) were administered intraperitoneally, respectively. A mouse was placed in the case 15 minutes after administration, and the number of the glass balls not covered with the wood chip was counted by visual observation at an interval of 10 minutes. The number of balls having ⅔ of the surface thereof being embedded in the wood chip was counted as the criteria for judgment.

For COc1ccc(C[C@@H]2c3cc(Oc4cc(C[C@@H]5c6cc(OC)c(OC)cc6CCN5C)ccc4O)c(OC)cc3CCN2C)cc1 [neferine], the “Locomotor activity-inhibiting action (in words)” value (mice [1]) is given as “exhibited a locomotor activity-inhibiting action”, the “Total sleep time” value (mice [2]; 50 mg/kg i.p., hydrochloride) is given as 100 min and the “Staying period (%)” value (mice [3]; arms without walls) is given as 33%. For the same molecule, the “Invasion times (%)” value (mice [3]; ratio to total entries) was 70%, the “Immobile time (sec) After 15 minutes” value (mice [4]; 15 minutes after administration) was 165 s and the “Immobile time (sec) After 30 minutes” value (mice [4]; 30 minutes after administration) was 170 s. The “Antihypertensive action (in words)” value [5] was “exhibited an antihypertensive action”, the “Number of individuals fallen” value (mice [6]; 25 mg/kg i.p., hydrochloride) was 0 and the “Significant difference test of ultromotivity” value (from here on “Significant difference test”) (mice [7]; 25 mg/kg i.p., hydrochloride) was “P < 0.01”. The “Ultromotivity (count) 30 minutes” value (mice [7]; 50 mg/kg i.p., hydrochloride) was 500 count, the “Ultromotivity (count) 60 minutes” value (mice [7]; 50 mg/kg i.p., hydrochloride) was 760 count and the “Ultromotivity (count) 30 minutes” value (mice [7]; 50 mg/kg oral, hydrochloride) was 500 count. For the same molecule, the “Ultromotivity (count) 60 minutes” value (mice [7]; 50 mg/kg oral, hydrochloride) was 750 count, the “Ultromotivity (count)” value (mice [8]; 50 mg/kg i.p.) was 2600 count and the “Ultromotivity (count)” value (mice [8]; 100 mg/kg i.p.) was 1800 count. The “Action on ultromotivity enhancement by methamphetamine (in words)” value (mice [8]; 50 and 100 mg/kg i.p.) was “obvious action suppressing the ultromotivity enhancement by methamphetamine”, the “Number of glass balls not covered with wood chip After 10 minutes” value (mice [9]; 25 mg/kg i.p.) was 4 and the “Number of glass balls not covered with wood chip After 20 minutes” value (mice [9]; 25 mg/kg i.p.) was 7. For the same molecule, the “Number of glass balls not covered with wood chip After 30 minutes” value (mice [9]; 25 mg/kg i.p.) was 10, the “Number of glass balls not covered with wood chip After 10 minutes” value (mice [9]; 50 mg/kg i.p.) was 3 and the “Number of glass balls not covered with wood chip After 20 minutes” value (mice [9]; 50 mg/kg i.p.) was 6. The “Number of glass balls not covered with wood chip After 30 minutes” value (mice [9]; 50 mg/kg i.p.) was 9.
With COc1cc2c(cc1O)[C@@H](Cc1ccc(O)cc1)N(C)CC2 [N-methylcoclaurine] the “Sedative activity compared with neferine and liensinine (in words)” value (mice [7]; 5 mg/kg i.p. versus 50 mg/kg) was “extremely higher activity”, the “Ultromotivity (count) 30 minutes” value (mice [7]; 5 mg/kg i.p., hydrochloride) was 250 count and the “Ultromotivity (count) 60 minutes” value (mice [7]; 5 mg/kg i.p., hydrochloride) was 250 count.
With CN1C(=O)CN=C(c2ccccc2)c2cc(Cl)ccc21 [diazepam, reference compound] the “Total sleep time” value (mice [2]; 1 mg/kg i.p.) was 130 min, the “Number of individuals fallen” value (mice [6]; 5 mg/kg i.p.) was 5 and the “Significant difference test” value (mice [7]; 5 mg/kg i.p.) was “P < 0.005”.
For COc1cc2c(cc1OC)[C@@H](Cc1ccc(O)c(Oc3cc4c(cc3OC)CCN(C)[C@@H]4Cc3ccc(O)cc3)c1)N(C)CC2 [liensinine], the “Number of individuals fallen” value (mice [6]; 25 mg/kg i.p., hydrochloride) was 0, the “Significant difference test” value (mice [7]; 25 mg/kg i.p., hydrochloride) was “In declining” and the “Ultromotivity (count) 30 minutes” value (mice [7]; 50 mg/kg oral, hydrochloride) was 600 count. For the same molecule, the “Ultromotivity (count) 60 minutes” value (mice [7]; 50 mg/kg oral, hydrochloride) was 800 count.
For COc1ccc(C[C@@H]2c3cc(Oc4cc(C[C@@H]5c6cc(O)c(OC)cc6CCN5C)ccc4O)c(OC)cc3CCN2C)cc1 [isoliensinine], the “Total sleep time” value (mice [2]; 50 mg/kg i.p., hydrochloride) was 120 min.
